Several values for one entry are separate records, joined by “and”; a condition that tells them apart may be missing. Equal values may be shown once.
How the values were obtained:
recombinant human TOP2A = target: T1, recombinant human TOP2A (Homo sapiens, UniProt P11388); test: In vitro ATPase activity of TOP2A (coupled assay); format: biochemical; settings: n=3
T1 construct: Using recombinant full-length human TOP2A and TOP2B enzymes; YFP (N, cleaved yes); made in house; host or cells: HEK293F
T1 sequence (P11388 whole entry): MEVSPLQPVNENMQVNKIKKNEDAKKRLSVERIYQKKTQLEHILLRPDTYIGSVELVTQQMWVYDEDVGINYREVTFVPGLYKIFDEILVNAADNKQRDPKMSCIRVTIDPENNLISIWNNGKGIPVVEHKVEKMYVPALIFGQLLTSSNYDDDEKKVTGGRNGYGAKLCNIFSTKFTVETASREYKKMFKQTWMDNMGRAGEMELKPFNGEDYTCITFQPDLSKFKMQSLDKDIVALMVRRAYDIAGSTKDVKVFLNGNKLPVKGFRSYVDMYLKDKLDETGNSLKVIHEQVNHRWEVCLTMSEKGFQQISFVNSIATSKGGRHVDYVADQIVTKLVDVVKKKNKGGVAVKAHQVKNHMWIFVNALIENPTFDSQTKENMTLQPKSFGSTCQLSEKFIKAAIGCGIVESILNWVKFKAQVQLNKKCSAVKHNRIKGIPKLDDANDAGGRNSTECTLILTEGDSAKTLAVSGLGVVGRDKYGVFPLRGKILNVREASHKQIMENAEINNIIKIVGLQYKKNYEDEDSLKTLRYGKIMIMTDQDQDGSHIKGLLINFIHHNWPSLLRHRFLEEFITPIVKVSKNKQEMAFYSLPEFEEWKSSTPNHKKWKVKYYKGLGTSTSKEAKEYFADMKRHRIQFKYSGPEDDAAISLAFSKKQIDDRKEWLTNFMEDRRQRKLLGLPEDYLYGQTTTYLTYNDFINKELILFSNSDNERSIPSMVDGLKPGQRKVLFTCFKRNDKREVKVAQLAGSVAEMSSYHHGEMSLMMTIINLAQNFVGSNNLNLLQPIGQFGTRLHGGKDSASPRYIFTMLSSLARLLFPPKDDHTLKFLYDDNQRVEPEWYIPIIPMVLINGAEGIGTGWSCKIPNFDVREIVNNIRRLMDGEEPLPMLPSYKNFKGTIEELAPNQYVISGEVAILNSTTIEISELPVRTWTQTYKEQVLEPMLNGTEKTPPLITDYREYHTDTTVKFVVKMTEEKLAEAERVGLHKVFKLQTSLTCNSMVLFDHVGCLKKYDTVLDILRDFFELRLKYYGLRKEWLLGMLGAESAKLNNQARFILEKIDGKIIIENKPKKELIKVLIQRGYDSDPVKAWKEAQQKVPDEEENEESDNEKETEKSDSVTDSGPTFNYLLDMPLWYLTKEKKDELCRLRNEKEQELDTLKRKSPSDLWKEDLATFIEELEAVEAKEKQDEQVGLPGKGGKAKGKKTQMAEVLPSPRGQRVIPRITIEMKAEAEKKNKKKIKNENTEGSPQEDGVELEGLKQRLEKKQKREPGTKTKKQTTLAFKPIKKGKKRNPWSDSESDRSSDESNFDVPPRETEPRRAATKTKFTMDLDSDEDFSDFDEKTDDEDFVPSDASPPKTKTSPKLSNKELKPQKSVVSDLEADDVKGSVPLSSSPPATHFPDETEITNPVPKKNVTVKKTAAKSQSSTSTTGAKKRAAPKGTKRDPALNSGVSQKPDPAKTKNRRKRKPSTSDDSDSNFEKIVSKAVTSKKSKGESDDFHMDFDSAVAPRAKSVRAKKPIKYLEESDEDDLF
Experimental: (§1) Topoisomerase proteins were diluted to 500 nM in storage buffer containing 20 mM HEPES pH 7.5, 500 mM NaCl, 0.5 mM TCEP, 25% glycerol, and 0.2 mg/mL BSA prior to use. A coupled assay was used to measure TOP2-catalyzed ATP hydrolysis in vitro[37] in Costar 96-well plates (Corning Incorporated). […] Reaction plates were pre-warmed to 30 °C for 5 min and ATP was added last to initiate the reaction. The reaction plate was placed in a CLARIOstarPlus plate reader (BMG Labtech) to measure NADH fluorescence at 30 °C every 30 s over 120 cycles using a 340-60 excitation filter and a 480-100 emission filter. Background fluorescence signals calculated from wells containing no ATP were subtracted from each measurement. The slope of NADH fluorescence decay in each well was calculated using the MARS software (BMG Labtech) and reaction wells that lacked topoisomerase inhibitor to account for photobleaching of NADH fluorescence served as background subtraction. Each presented data point was obtained from distinct sample. Values were normalized to untreated controls and plotted as a function of inhibitor concentration to determine IC50 values using Prism 9 (GraphPad).

recombinant human TOP2B = target: T2, recombinant human TOP2B (Homo sapiens, UniProt Q02880); test: In vitro ATPase activity of TOP2B (coupled assay); format: biochemical
T2 construct: Using recombinant full-length human TOP2A and TOP2B enzymes; YFP (N, cleaved yes); made in house; host or cells: HEK293F
T2 sequence (Q02880 1-1621 isoform Q02880-2): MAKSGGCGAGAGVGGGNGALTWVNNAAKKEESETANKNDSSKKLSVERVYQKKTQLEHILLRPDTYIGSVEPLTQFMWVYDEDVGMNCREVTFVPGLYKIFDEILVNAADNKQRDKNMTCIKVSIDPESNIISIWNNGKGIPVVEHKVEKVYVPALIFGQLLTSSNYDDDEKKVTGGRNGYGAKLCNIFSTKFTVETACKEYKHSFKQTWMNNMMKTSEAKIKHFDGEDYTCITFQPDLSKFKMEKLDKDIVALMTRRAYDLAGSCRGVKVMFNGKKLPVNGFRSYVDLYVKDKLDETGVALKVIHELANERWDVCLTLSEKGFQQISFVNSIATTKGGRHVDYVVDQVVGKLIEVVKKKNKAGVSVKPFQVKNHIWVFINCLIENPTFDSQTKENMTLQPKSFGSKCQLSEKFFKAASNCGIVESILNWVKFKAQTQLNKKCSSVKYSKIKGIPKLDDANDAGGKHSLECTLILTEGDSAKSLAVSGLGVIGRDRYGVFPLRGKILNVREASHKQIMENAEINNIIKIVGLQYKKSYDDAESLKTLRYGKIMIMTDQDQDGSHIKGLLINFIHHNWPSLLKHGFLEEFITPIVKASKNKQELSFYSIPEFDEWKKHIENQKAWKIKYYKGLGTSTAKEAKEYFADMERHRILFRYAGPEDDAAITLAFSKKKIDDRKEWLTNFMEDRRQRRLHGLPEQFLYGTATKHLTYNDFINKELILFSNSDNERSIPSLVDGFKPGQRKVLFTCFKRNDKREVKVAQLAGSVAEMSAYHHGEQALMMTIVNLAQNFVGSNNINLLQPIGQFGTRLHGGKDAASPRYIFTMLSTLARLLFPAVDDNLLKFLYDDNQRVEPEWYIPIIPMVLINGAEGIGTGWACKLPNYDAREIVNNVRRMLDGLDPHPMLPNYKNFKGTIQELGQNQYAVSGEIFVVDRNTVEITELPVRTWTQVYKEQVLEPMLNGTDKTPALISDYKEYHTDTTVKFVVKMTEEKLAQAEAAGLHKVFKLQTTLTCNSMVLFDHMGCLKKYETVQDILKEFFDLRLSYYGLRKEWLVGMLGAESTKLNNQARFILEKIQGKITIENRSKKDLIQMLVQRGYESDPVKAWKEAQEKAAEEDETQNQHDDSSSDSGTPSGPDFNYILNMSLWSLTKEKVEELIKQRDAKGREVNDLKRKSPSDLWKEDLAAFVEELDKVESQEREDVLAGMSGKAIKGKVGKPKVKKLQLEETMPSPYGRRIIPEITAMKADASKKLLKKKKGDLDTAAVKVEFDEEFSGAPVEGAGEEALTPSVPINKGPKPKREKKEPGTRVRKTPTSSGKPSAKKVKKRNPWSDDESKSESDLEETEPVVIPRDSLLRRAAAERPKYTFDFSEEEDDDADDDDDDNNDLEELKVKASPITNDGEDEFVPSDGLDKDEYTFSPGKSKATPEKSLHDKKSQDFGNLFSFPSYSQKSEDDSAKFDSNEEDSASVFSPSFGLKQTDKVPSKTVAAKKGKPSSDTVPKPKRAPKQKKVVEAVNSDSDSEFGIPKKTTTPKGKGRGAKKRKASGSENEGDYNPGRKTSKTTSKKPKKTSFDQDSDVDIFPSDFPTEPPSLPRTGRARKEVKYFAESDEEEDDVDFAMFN
Experimental: as §1

[1] = tested on: neonatal rat ventricular cardiomyocytes (NVCM); test: Protection against DAU-induced cytotoxicity (LDH release) in NVCM; format: cell-based; set-up: key to Suppl.Fig.3 DAU-induced cytotoxicity (LDH release) in NVCM, mean of independent replicates / LDH release (DAU-induced cytotoxicity), mean of independent replicates: % of total LDH activity
Experimental: (§2) The protective effects of the BNS-22 and newly prepared compounds were evaluated using primary cultures of neonatal rat cardiomyocytes isolated in house as previously described. Hearts isolated from 1- to 3-day-old Wistar rats were minced in buffer (1.2 mM MgSO4 · 7H2O, 116 mM NaCl, 5.3 mM KCl, 1.13 mM NaH2PO4 · H2O, 20 mM 4-(2-hydroxyethyl)-1-piperazine ethanesulfonic acid (HEPES), glucose 1 mg/mL) on ice, then serially digested (20 min, six repetitions) at 37 °C with collagenase type II (60 U/mL, Gibco). After 2 h pre-plating in a 150 mm Petri dish per approximately 20 hearts to minimize non-myocyte contamination, cells were plated in 24-well gelatin-coated plates at a density of 400,000 cells per well. Cells were cultured at 37 °C and 5% CO2 in Dulbecco’s modified Eagle medium (DMEM)/ F12 culture medium supplemented with 10% horse serum, 5% fetal bovine serum (FBS), 20 mM sodium pyruvate, 50 U/mL penicillin, and 50 μg/mL streptomycin. Freshly isolated cells were left for 40 h to attach and form a culture of spontaneously beating cardiomyocytes, then the medium was changed to DMEM/F12 medium supplemented with 5% fetal bovine serum, 20 mM sodium pyruvate, 50 U/mL penicillin, and 50 μg/mL streptomycin. For the experiments, the medium was changed to serum- and pyruvate-free DMEM/F12 with 50 U/mL penicillin and 50 μg/mL streptomycin. Cardiomyocytes were pretreated with BNS-22 or new compounds for 3 h and then coincubated with DAU (1.2 µM) for another 3 h. After the DAU treatment period, the culture medium was exchanged for the drug-free DMEM/F12 with 50 U/mL penicillin and 50 μg/mL streptomycin for the 48 h follow-up. Experiments to determine the inherent toxicity of each compound studied follow the same schedule, only no DAU was added. Subsequently, the culture medium sample was taken from each well for evaluation of lactate dehydrogenase (LDH) activity. The total LDH activity of each sample for normalization was measured after 1 h of incubation at 37 °C in lysis buffer (0.1 M potassium phosphate, 1% Triton X-100, 1 mM dithiothreitol (DTT), 2 mM EDTA, pH 7.8, 15 min in RT). All samples were immediately analyzed in Tris HCl buffer (pH 8.9) containing 35 mM lactic acid and 5 mM NAD^+. The rate of NAD^+ reduction was monitored spectrophotometrically at 340 nm for 2 min. The slope of the linear region was calculated, and the results were expressed as a percentage of the total LDH. Each presented data point was obtained from distinct sample.

[2] = tested on: neonatal rat ventricular cardiomyocytes (NVCM); test: Inherent toxicity (LDH release) in NVCM; format: cell-based; set-up: key to LDH release (inherent toxicity), mean of independent replicates: % of total LDH activity; settings: NVCM, Suppl.Fig.4
Experimental: as §2

YFP-TOP2A = target: T3, YFP-TOP2A (Homo sapiens, UniProt P11388); test: FRAP analysis, YFP-TOP2A in HEK293F cells; format: cell-based; settings: 15 min pre-incubation
T3 construct: Using recombinant full-length human TOP2A and TOP2B enzymes; expressed in transfected cells; host or cells: HEK293F
T3 sequence (P11388 whole entry): as the sequence (P11388 whole entry) above
Experimental: (§3) HEK293F cells were transfected with DNA plasmids encoding yellow-fluorescent protein (YFP)-TOP2A or YFP-TOP2B (the same DNA constructs for mammalian protein expression and purification) using Lipofectamine 2000 (Thermo Fisher Scientific). Cells were cultured for 24 h post transfection and YFP signals were confirmed prior to FRAP experiments. Transfected cells were plated on glass-bottomed culture dishes (Matsunami) and rested overnight. The next day, each dish was pre-incubated with the indicated inhibitor treatment or DMSO control for 15 min prior to FRAP experiment. Each set of experiments was repeated on at least two different days using newly transfected cells each time. Live-cell imaging was done using a LSM 980 microscope (Carl Zeiss Microscopy, LLC). YFP signal was excited at 508 nm at 2% laser power and detected through a 516–604 nm range. A small area within the nucleus (purple box) is manually selected for fluorescence bleaching at 100% laser power for 50 iterations. Inhibition of TOP2 by obex inhibitors was detected by impairment in fluorescence recovery at 15 s post bleaching, as a lack of inhibition allows for TOP2 diffusion throughout the nucleus.

YFP-TOP2B = target: T4, YFP-TOP2B (Homo sapiens, UniProt Q02880); test: FRAP analysis, YFP-TOP2B in HEK293F cells; format: cell-based; settings: 15 min pre-incubation
T4 construct: Using recombinant full-length human TOP2A and TOP2B enzymes; expressed in transfected cells; host or cells: HEK293F
T4 sequence (Q02880 1-1621 isoform Q02880-2): as the sequence (Q02880 1-1621 isoform Q02880-2) above
Experimental: as §3

[3] = target: T5, TOP2A-DNA covalent complex (Homo sapiens, UniProt P11388); test: RADAR assay, etoposide-induced TOP2A-DNA covalent complex in HEK293F cells; format: cell-based; settings: etoposide 5 μM alone; independent replicates
T5 construct: endogenous in cells; host or cells: HEK293F
T5 sequence (P11388 whole entry, one chain of several): as the sequence (P11388 whole entry) above
Experimental: (§4) HEK293F cells were plated at 3 × 10^5 cells per well and grown overnight. […] Upon removal of media, cells in each well were immediately lysed with 750 µL DNAzol (Molecular Research Center, Inc.) and the DNA was precipitated by addition of 375 µL of 100% ethanol. This step was then repeated to eliminate protein aggregates. Precipitate from each sample was pelleted via centrifugation at 4 °C and max speed for 5 min. The pellets were washed twice with buffer containing 20 mM Tris pH 7.5, 1 mM EDTA pH 8.0, 50 mM NaCl, 50% EtOH, and at the end of each wash, centrifugation at 4000 × g for 2 min was repeated to isolate the DNA pellets. The pellets were washed in 75% EtOH and then collected by centrifugation at 4 °C and max speed for 5 min. The supernatant was removed via pipetting, and the remaining pellets were air dried for 5 min before 50 µL 8 mM NaOH and 0.1% Tween-20 was added to each pellet. Once no visible precipitate remained, each mixture was supplemented with 5 µL of Benzonase buffer containing 500 mM Tris pH 8.0, 10 mM MgCl2, 1/1000 Roche complete protease inhibitor cocktail (Millipore Sigma) and 40 units Benzonase (Millipore Sigma) followed by 30 to 60 min incubation at 37 °C until the pellets were fully dissolved. The DNA content from each sample was quantified on a nanodrop, and 10 µg of DNA was diluted to a final volume of 200 µL in 8 mM NaOH and 0.1% Tween. The samples were applied over the Whatman Minifold I dot blot apparatus (Cytiva) and collected on a PVDF membrane (Thermo Fisher Scientific). The membrane was washed three times with 8 mM NaOH and 0.1% Tween-20 solution prior to removal and blocking with the same wash solution containing 1 mg/mL BSA. Western blotting was carried out on an iBind (Thermo Fisher Scientific) and TOP2 proteins were detected using isoform-specific antibody against full length TOP2A (1:250 dilution; HT2A21, Inspiralis) and TOP2B (1:500 dilution; 611493, BD Biosciences) and visualized with anti-rabbit (1:1000 dilution; 926-68071, LI-COR Bio) and anti-mouse (1:1000 dilution; 926-32210, LI-COR Bio) secondary antibodies in iBind running buffer. The blots were imaged on a LI-COR Odyssey Fc and analysed using ImageStudio. Each presented data point was obtained from distinct sample.

[4] = target: T6, TOP2B-DNA covalent complex (Homo sapiens, UniProt Q02880); test: RADAR assay, etoposide-induced TOP2B-DNA covalent complex in HEK293F cells; format: cell-based; settings: etoposide 5 μM alone; independent replicates
T6 construct: endogenous in cells; host or cells: HEK293F
T6 sequence (Q02880 2-1626 limits assumed, one chain of several): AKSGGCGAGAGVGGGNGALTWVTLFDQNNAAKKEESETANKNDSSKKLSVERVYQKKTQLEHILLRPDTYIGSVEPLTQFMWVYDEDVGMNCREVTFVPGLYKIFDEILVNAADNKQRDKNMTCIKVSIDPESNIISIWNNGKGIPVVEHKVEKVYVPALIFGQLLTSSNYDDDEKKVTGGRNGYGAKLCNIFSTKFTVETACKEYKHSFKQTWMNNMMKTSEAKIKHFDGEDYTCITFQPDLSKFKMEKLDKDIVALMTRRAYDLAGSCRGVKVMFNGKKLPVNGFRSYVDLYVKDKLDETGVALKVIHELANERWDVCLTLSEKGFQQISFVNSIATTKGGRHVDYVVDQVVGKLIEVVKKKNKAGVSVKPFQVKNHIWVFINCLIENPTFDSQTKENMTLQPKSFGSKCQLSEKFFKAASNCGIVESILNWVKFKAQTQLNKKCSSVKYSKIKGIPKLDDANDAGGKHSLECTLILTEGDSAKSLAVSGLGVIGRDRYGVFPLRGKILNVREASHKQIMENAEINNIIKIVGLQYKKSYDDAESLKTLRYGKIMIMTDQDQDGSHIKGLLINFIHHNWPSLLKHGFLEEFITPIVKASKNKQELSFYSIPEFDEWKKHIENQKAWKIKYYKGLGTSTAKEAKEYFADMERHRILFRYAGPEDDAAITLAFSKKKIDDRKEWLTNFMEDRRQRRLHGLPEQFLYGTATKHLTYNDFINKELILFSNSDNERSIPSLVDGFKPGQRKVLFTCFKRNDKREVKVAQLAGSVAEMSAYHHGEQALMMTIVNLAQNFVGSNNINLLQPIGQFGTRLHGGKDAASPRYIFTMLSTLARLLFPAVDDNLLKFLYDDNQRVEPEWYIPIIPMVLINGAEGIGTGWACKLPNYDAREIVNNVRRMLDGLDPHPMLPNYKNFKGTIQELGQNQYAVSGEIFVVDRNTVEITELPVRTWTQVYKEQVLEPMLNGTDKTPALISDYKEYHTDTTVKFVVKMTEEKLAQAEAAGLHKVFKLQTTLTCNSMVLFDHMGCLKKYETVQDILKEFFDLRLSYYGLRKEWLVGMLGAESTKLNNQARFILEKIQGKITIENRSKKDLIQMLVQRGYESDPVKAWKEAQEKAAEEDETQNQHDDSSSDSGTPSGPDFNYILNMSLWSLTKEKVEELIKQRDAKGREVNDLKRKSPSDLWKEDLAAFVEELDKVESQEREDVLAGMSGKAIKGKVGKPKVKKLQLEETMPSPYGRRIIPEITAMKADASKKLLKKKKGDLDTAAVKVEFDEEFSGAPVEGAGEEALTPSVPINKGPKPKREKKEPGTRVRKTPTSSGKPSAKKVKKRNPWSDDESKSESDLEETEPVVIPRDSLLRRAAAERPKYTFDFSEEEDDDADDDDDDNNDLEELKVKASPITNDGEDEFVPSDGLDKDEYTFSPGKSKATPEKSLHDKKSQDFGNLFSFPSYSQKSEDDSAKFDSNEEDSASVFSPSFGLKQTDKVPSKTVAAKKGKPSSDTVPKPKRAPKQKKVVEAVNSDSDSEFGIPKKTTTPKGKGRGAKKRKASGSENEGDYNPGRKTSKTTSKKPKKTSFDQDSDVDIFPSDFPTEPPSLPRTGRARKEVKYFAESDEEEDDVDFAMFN
Experimental: as §4

Row | IC50 (recombinant human TOP2A) [nM] | SRbeta (SRTOP2B), TOP2 ATPase activity (recombinant human TOP2B; TOP2A IC50 divided by TOP2B IC50) | IC50 (recombinant human TOP2B; n=3) [nM] | fluorescence recovery of YFP-TOP2A (FRAP) (YFP-TOP2A) | fluorescence recovery of YFP-TOP2B (FRAP) (YFP-TOP2B) | TOP2B spot intensity [4] | Structure (SMILES) | relative inhibition of TOP2A vs TOP2B (recombinant human TOP2B; ATPase) | minimal effective concentration ([1]; Rattus norvegicus, Cardiomyocyte, NVCM, protection against DAU 1.2 µM, n=4, read-out: LEC = lowest effective concentration) [µM] | Suppl.Fig.3 DAU-induced cytotoxicity (LDH release) in NVCM, mean of independent replicates ([1]; compound 1 µM + DAU 1.2 µM) | Suppl.Fig.3 DAU-induced cytotoxicity (LDH release) in NVCM, mean of independent replicates ([1]; compound 10 µM + DAU 1.2 µM) | Suppl.Fig.3 DAU-induced cytotoxicity (LDH release) in NVCM, mean of independent replicates ([1]; compound 30 µM + DAU 1.2 µM) | Suppl.Fig.3 DAU-induced cytotoxicity (LDH release) in NVCM, mean of independent replicates ([1]; compound 100 µM + DAU 1.2 µM) | LDH release (inherent toxicity), mean of independent replicates ([2]; compound alone 1 µM) | LDH release (inherent toxicity), mean of independent replicates ([2]; compound alone 10 µM) | LDH release (inherent toxicity), mean of independent replicates ([2]; compound alone 30 µM) | LDH release (inherent toxicity), mean of independent replicates ([2]; compound alone 100 µM) | TOP2A spot intensity [3]
1 | 690 | 1.0 | 660 | inhibits fluorescence recovery | inhibits fluorescence recovery |  | CCCc1cc(=O)oc2c(C(=O)N3CCCc4ccccc43)c(O)ccc12 [2c] | inhibited TOP2A and TOP2B with equal efficacy | 10 | 33.3224 | 29.0836 | 25.5275 | 35.3978 | 16.6801 | 16.3877 | 17.2005 | 29.603 | 
2 |  |  |  |  |  | 173.9 and 77.69 and 59.37 and 61.46 | COc1cc([C@@H]2c3cc4c(cc3[C@@H](O[C@@H]3O[C@@H]5CO[C@@H](C)O[C@H]5[C@H](O)[C@H]3O)[C@H]3COC(=O)[C@H]23)OCO4)cc(OC)c1O [etoposide, reference compound] |  |  |  |  |  |  |  |  |  |  | 63.37 and 136 and 84.27 and 127.1 and 89.2

Source: PMC12116762, “Topobexin targets the Topoisomerase II ATPase domain for beta isoform-selective inhibition and anthracycline cardioprotection” (Nature Communications, 2025)
